Measurements as given in patent US20150315241A1, “Antibiotic Peptides” (priority 2007, published 2015).
Converted amounts (≈) assume the structure as drawn. Like-named read-outs stand apart in the source and are kept apart here. Where a SMILES comes first, the peptide text is derived from it. Where no end group is shown, it is not given here. [ ]: non-standard residue; d: D form. The star is where a group is joined. Orn(α-tetramethylguanidino) = CN(C)C(=N[C@@H](CCCN)C(=O)*)N(C)C; hArg = N=C(N)NCCCC[C@H](N)C(=O)O; β3hR = N=C(N)NCCC[C@H](N)CC(=O)O; X1 = CN(C)C(=NCC(=O)*)N(C)C; Orn = NCCC[C@H](N)C(=O)O

Assays:
[1] = test system: S. typhi S5; format: cell-based, Salmonella typhi
Description: (§1) The minimal inhibition concentrations (MIC) of the apidaecin-derived peptides and peptide-derivatives were determined by a growth inhibition assay using a serial peptide dilution in sterilized round-bottom 96-well plates (polystyrene, U-bottom, Greiner Bio-One GmbH) with a final volume of 100 μL per well. The bacteria, e.g., E. coli BL21 A1, were grown in nutrient broth (NB, Carl Roth GmbH+Co. KG, Karlsruhe, Germany) at 37° C. over night. To each well of the 96-well plate, 50 μL of the overnight culture adjusted to 5×10^6 CFU/mL in 1% TSB were added. Lyophilized peptides and peptidomimetics were dissolved in 1% TSB (tryptic soy broth) or water to give a final concentration of 250 μg/mL. Fifty μL of the peptide or peptidomimetics solution were added to the first well of a row on the plate and mixed. Fifty μL of the first well containing the peptide solution were transferred to the second well, mixed and again 50 μL transferred to the next well and so on. Thereby, a two-fold dilution series was obtained starting at 250 μg/mL in the first well down to 120 ng/mL in the 12th well of a row giving a final peptide or peptidomimetics concentration from 125 μg/mL (well 1) to 60 ng/mL (well 12). Plates were incubated at 37° C. for 20 hrs. The absorbance was measured at 595 nm using a TECAN micro plate spectrophotometer (Tecan, Germany). All peptides and peptidomimetics were measured in triplicates. Sterilized water was used as a negative control.
(§2) The following multidrug resistant bacteria strains were tested: • Eschericha coli 45849 and D31, • Klebsiella pneumoniae 123132 and K6, • Salmonella typhi S5 and Salmonella enterica subsp. enterica serovar Typhimurium (ATCC 700408), • Rhizobium radiobacter (ATCC 15955 deposited as Agrobacterium tumefaciens).

[2] = test system: E. coli D31; format: cell-based, Escherichia coli
Description: as §1, §2

[3] = test system: S. enterica subsp. Enterica serovar. typhi G10215 ATCC 700408; format: cell-based, Salmonella enterica
Description: as §1, §2

[4] = test system: M. luteus ATCC 10240; format: cell-based, Micrococcus luteus
Description: as §1
(§3) The bacteria strains were tested: • Eschericha coli 1103, 10233, BL 21 AI, DC 2, • Klebsiella pneumoniae 681, • Micrococcus luteus ATCC 10240, • Mycobacterium vaccae • Bactillus subtillis 347.

[5] = test system: E. coli 1103; format: cell-based, Escherichia coli; details: 1103, 20 h
Description: as §1, §3

[6] = test system: K. pneumonia 681; format: cell-based, Klebsiella pneumoniae; details: 20 h
Description: as §1, §3

[7] = test system: E. coli 45849; assay: Growth inhibition assay (MIC); format: cell-based, Escherichia coli; details: multidrug resistant strain; 1% TSB, 37° C., 20 hrs
Description: as §1, §2

[8] = test system: K. Pneumonia 123132; assay: Growth inhibition assay (MIC); format: cell-based, Klebsiella pneumoniae; details: multidrug resistant strain; 1% TSB, 37° C., 20 hrs
Description: as §1, §2

[9] = test system: K. Pneumonia K6, ATCC 700603; assay: Growth inhibition assay (MIC); format: cell-based, Klebsiella pneumoniae; details: multidrug resistant strain; 1% TSB, 37° C., 20 hrs
Description: as §1, §2

[10] = test system: E. coli BL 21 AI; assay: Growth inhibition assay (MIC); format: cell-based, Escherichia coli; details: 1% TSB, 37° C., 20 hrs
Description: as §1, §3

[11] = test system: B. subtilis 347; format: cell-based, Bactillus subtillis; details: 1% TSB, 37° C., 20 hrs
Description: as §1, §3

[12] = multidrug resistant strain, 1% TSB, 37° C., 20 hrs

Compound	MIC S. typhi S5 ([1]; S5, 20 h) [µg/mL]	MIC E. coli D31 ([2]; D31, 20 h) [µg/mL]	MIC S. enterica subsp. Enterica serovar. typhi G10215 ATCC 700408 ([3]; ATCC 700408, 20 h) [µg/mL]	MIC E. coli 45849 [7] [µg/mL]	MIC K. Pneumonia 123132 [8] [µg/mL]	MIC K. Pneumonia K6, ATCC 700603 [9] [µg/mL]	also measured
CC[C@H](C)[C@H](NC(=O)[C@H](Cc1ccc(O)cc1)NC(=O)[C@@H](NC(=O)[C@@H]1CCCN1C(=O)[C@H](CCCNC(=N)N)NC(=O)[C@H](CC(N)=O)NC(=O)[C@H](CC(N)=O)NC(=O)CN=C(N(C)C)N(C)C)C(C)C)C(=O)N1CCC[C@H]1C(=O)N[C@@H](CCC(N)=O)C(=O)N1CCC[C@H]1C(=O)N[C@@H](CCCNC(=N)N)C(=O)N1CCC[C@H]1C(=O)N1CCC[C@H]1C(=O)N[C@@H](Cc1c[nH]cn1)C(=O)N1CCC[C@H]1C(=O)N[C@@H](CCCCNC(=N)N)C(=O)N[C@@H](CC(C)C)C(N)=O [compound 133] (X1-NNRPVYIPQPRPPHP[hArg]L-NH2; N-terminus and C-terminus assumed)	16 (≈ 7.21 µM)	16 (≈ 7.21 µM)	2 (≈ 0.901 µM)				MIC M. luteus ATCC 10240 ([4]; ATCC 10240, 20 h): 32 µg/mL (≈ 14.4 µM); MIC E. coli 1103 [5]: 16 µg/mL (≈ 7.21 µM); MIC K. pneumonia 681 [6]: 8 µg/mL (≈ 3.6 µM)
CC[C@H](C)[C@H](NC(=O)[C@H](Cc1ccc(O)cc1)NC(=O)[C@@H](NC(=O)[C@@H]1CCCN1C(=O)[C@H](CCCNC(=N)N)NC(=O)[C@H](CC(N)=O)NC(=O)[C@H](CC(N)=O)NC(=O)[C@@H](N)CCCN)C(C)C)C(=O)N1CCC[C@H]1C(=O)N[C@@H](CCC(N)=O)C(=O)N1CCC[C@H]1C(=O)N[C@@H](CCCNC(=N)N)C(=O)N1CCC[C@H]1C(=O)N1CCC[C@H]1C(=O)N[C@@H](Cc1c[nH]cn1)C(=O)N1CCC[C@H]1C(=O)N[C@@H](CCCNC(=N)N)CC(=O)N[C@@H](CC(C)C)C(N)=O [compound 121] (H-[Orn]NNRPVYIPQPRPPHP[β3hR]L-NH2)		16 (≈ 7.34 µM)		128 (≈ 58.8 µM)	128 (≈ 58.8 µM)	>128	
159 (GNNRPVYIPRPRPPHPRL) [compound 159]				1	4	4	MIC S. typhi S5 [1, 12]: 0.25 µg/mL; MIC E. coli D31 [2, 12]: 1 µg/mL; MIC S. enterica subsp. Enterica serovar. typhi G10215 ATCC 700408 [3, 12]: 0.25 µg/mL
GNNRPVYIPQPRPPHPRF-NH2 [compound 44]		128	4			64	
86 ([Orn]NNRPVYIPRPRPPHPRPIRV-NH2) [compound 86]							MIC E. coli BL 21 AI [10]: 3.91 µg/mL; MIC M. luteus ATCC 10240 ([4]; 1% TSB, 37° C., 20 hrs): 0.98 µg/mL; MIC B. subtilis 347 [11]: 62.5 µg/mL
CC[C@H](C)[C@H](NC(=O)[C@H](Cc1ccc(O)cc1)NC(=O)[C@@H](NC(=O)[C@@H]1CCCN1C(=O)[C@H](CCCNC(=N)N)NC(=O)[C@H](CC(N)=O)NC(=O)[C@H](CC(N)=O)NC(=O)[C@H](CCCN)N=C(N(C)C)N(C)C)C(C)C)C(=O)N1CCC[C@H]1C(=O)N[C@@H](CCC(N)=O)C(=O)N1CCC[C@H]1C(=O)N[C@@H](CCCNC(=N)N)C(=O)N1CCC[C@H]1C(=O)N1CCC[C@H]1C(=O)N[C@@H](Cc1c[nH]cn1)C(=O)N1CCC[C@H]1C(=O)N[C@@H](CCCNC(=N)N)C(=O)N[C@@H](CC(C)C)C(N)=O [compound 120] ({Orn(α-tetramethylguanidino)}-NNRPVYIPQPRPPHPRL-NH2; N-terminus and C-terminus assumed)	0.125 (≈ 0.0552 µM)	0.5 (≈ 0.221 µM)	0.125 (≈ 0.0552 µM)				
